The source of these data is ChEMBL document CHEMBL1158411, “Second generation of BACE-1 inhibitors part 3: Towards non hydroxyethylamine transition state mimetics” (Bioorg Med Chem Lett, 2009).

pIC50: −log10 of the molar value.

For series [1], the system named is Blood. Nature of the series: Steady sate drug level in blood of wild type mouse expressing mdr1a/b by HPLC analysis. In kind it is ADME, tissue-based.
The target in series [2] is T1, Beta-secretase 1 (Homo sapiens, UniProt P56817). Nature of the series: Inhibition of BACE1.
A short description of series [3]: Ratio of steady sate drug level in brain to blood of wild type mouse expressing mdr1a/b. It counts as ADME, tissue-based.
A short description of series [4]: Blood clearance in mdr1a/b knockout mouse by HPLC analysis. It counts as ADME, organism-based.
The subject of series [5] is Brain. Nature of the series: Steady sate drug level in brain of wild type mouse expressing mdr1a/b by HPLC analysis. In kind it is ADME, tissue-based. The following applies: in vivo.
The test system of series [6] is Brain. Nature of the series: Steady sate drug level in brain of mdr1a/b knockout mouse by HPLC analysis. The following applies: in vivo, read-out: Css. In kind it is ADME, tissue-based.
A short description of series [7]: Lipophilicity, log D at pH 7.4. The following applies: buffer.
Series [8] can be described thus: Blood clearance in wild type mouse expressing mdr1a/b by HPLC analysis. In kind it is ADME, organism-based.
Series [9] can be described thus: Bioavailability in rat. In kind it is ADME, organism-based. The following applies: in vivo.
Series [10] concerns Blood. As to the kind of experiment: Steady sate drug level in blood of mdr1a/b knockout mouse by HPLC analysis. In kind it is ADME, tissue-based. The following applies: read-out: Css.
Series [11] is described as follows: Ratio of steady sate drug level in brain to blood of mdr1a/b knockout mouse. In kind it is ADME, tissue-based.
A further series has as its target Cathepsin D (Homo sapiens, UniProt P07339). Nature of the series: Inhibition of cathepsin-D.
Another series deals with T2, Beta-secretase 2 (Homo sapiens, UniProt Q9Y5Z0).
T2 sequence (Q9Y5Z0 whole entry): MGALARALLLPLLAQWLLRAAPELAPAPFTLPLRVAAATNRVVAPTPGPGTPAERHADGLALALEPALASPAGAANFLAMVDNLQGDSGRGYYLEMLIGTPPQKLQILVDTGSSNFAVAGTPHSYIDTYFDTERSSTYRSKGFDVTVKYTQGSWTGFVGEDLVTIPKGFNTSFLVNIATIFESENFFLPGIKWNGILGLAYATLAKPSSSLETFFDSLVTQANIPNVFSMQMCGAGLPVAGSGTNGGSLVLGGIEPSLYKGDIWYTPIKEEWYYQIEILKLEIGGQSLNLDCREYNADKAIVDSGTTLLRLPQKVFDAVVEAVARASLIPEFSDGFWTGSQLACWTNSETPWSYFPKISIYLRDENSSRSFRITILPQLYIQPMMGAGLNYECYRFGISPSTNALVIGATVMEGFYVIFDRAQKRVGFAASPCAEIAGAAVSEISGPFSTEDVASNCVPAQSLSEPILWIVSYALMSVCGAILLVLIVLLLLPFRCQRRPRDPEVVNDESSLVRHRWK
Nature of the series: Inhibition of BACE2.

In series [12] the target is T1, Beta-secretase 1. As to the kind of experiment: Inhibition of BACE1 in human SHSY5Y cells expressing wild type APP assessed as inhibition of intracellular amyloid beta-40 secretion. In kind it is cell-based, SH-SY5Y.
The nature of series [13]: Blood clearance in rat at 1 mg/kg/hr, iv. More on the design: route intravenous. It counts as ADME, organism-based.
Series [14] can be described thus: Volume of distribution in dog at 1 mg/kg/hr, iv. In kind it is ADME, organism-based, Canis lupus familiaris. Further details: route intravenous. Conditions: in vivo.
Series [15] is described as follows: Cmax in rat at 10 mg/kg. It counts as ADME, organism-based. More on the design: dose 10 mg/kg. Conditions: in vivo.
A short description of series [16]: Cmax in dog at 10 mg/kg. Conditions: in vivo. Further details: dose 10 mg/kg. It counts as ADME, organism-based, Canis lupus familiaris.
Series [17] in a line: Half life in rat at 1 mg/kg/hr, iv. It counts as ADME, organism-based. More on the design: route intravenous. The following applies: in vivo.
A short description of series [18]: Bioavailability in dog. The following applies: in vivo. In kind it is ADME, organism-based, Canis lupus familiaris.
The nature of series [19]: Volume of distribution in rat at 1 mg/kg/hr, iv. It counts as ADME, organism-based. Further details: route intravenous. Conditions: in vivo.
Series [20] in a line: Blood clearance in dog at 1 mg/kg/hr, iv. Further details: route intravenous. It counts as ADME, organism-based, Canis lupus familiaris.
The nature of series [21]: Half life in dog at 1 mg/kg/hr, iv. It counts as ADME, organism-based, Canis lupus familiaris. More on the design: route intravenous. The following applies: in vivo.

As usually defined, the pIC50 is −log10 of the IC50, conventionally taken in molar units. A word on the Kp: it is tissue or fluid exposure divided by exposure in the circulation. For orientation: clearance means a measure of how efficiently the substance is removed, as volume per time. For orientation: logD means lipophilicity at a set pH, counting ionised and neutral species. Low values mean lower lipophilicity, high ones higher lipophilicity. Usually bioavailability stands for the share of a dose that reaches the circulation, judged against a reference dose that is usually intravenous. High values mean much systemic uptake, low ones little systemic uptake. The term Vd denotes the apparent volume that relates the amount in the body to the concentration in plasma or blood. High values mean wide distribution into tissue, low ones little distribution into tissue. As usually defined, the Cmax is the peak of the concentration-time curve. What is called half-life is the time needed for the level to fall by half in the phase considered.

Chain of Cathepsin D (P07339 65-162 limits assumed): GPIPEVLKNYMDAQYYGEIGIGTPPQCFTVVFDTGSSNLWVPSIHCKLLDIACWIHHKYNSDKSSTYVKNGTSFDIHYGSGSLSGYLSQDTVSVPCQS
Chain of Cathepsin D (P07339 169-412 limits assumed): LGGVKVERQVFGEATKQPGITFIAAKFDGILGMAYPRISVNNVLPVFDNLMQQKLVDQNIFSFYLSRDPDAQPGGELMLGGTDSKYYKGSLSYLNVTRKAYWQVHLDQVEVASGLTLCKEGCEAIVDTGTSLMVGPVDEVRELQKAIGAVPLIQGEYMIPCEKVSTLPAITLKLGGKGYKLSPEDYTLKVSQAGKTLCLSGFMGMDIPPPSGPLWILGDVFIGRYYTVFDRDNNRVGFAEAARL
T1 sequence (P56817 whole entry): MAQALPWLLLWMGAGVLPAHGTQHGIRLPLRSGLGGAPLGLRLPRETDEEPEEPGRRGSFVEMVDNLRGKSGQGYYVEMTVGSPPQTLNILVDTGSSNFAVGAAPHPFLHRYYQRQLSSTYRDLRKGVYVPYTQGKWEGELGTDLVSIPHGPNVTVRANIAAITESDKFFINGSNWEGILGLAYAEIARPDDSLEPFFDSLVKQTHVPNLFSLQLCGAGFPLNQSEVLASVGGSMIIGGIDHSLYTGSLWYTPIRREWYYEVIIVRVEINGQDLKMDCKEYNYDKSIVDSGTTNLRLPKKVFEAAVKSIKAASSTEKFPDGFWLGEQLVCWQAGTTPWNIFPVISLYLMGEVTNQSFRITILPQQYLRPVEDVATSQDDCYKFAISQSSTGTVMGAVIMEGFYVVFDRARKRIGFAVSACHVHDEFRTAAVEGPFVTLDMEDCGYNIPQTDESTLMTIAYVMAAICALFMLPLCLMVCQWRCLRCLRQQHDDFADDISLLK

As for `CCc1cn2c3c(cc(C(=O)N[C@@H](Cc4ccccc4)[C@H](O)CNC4CC4)cc13)N(C)S(=O)(=O)CC2`, the Css was found to be 490 nM in the series with Blood [1] and 61 nM in the series with Brain [5]. Besides, the pIC50 at Beta-secretase 1 [2] is 7.96. Also, the Kp in series [3] turned out to be 0.13; in series [11], 2.41. The clearance in series [4] was determined as 62 mL/min/kg; in series [8], 72 mL/min/kg. The concentration in the series with Brain [6] was 989 nM; in the series with Blood [10], 397 nM. In series [7], the logD was 2.17. This molecule displayed a bioavailability in [9] of 17%.

On to `CCNC[C@@H](O)[C@H](Cc1ccccc1)NC(=O)c1cc2c3c(c1)c(CC)cn3CCS(=O)(=O)N2C`, for which the pIC50 was 7.32 on Beta-secretase 1 [2], 4.44 against Cathepsin D, 5.94 at Beta-secretase 2 and 6.58 at Beta-secretase 1 [12].

`CCn1cc2c3c(cc(C(=O)N[C@@H](Cc4ccccc4)[C@H](O)CNCC(F)F)cc31)N(C)S(=O)(=O)CC2`: the pIC50 at Beta-secretase 1 [2] is 7.70; at Beta-secretase 1 [12], 7.29.

In the case of `CCn1cc2c3c(cc(C(=O)N[C@@H](Cc4ccccc4)[C@H](O)CNCC(F)(F)F)cc31)N(C)S(=O)(=O)CC2`, the values for the pIC50 at Beta-secretase 1 [2] and at Beta-secretase 1 [12] were 7.10 and 5.68, respectively.

On to `CCNC[C@@H](O)[C@H](Cc1ccccc1)NC(=O)c1cc2c3c(cn(CC)c3c1)CCS(=O)(=O)N2C`, for which the negative logarithm of the IC50 (pIC50) at Beta-secretase 1 [2] is 7.64; on Cathepsin D, 4.71; at Beta-secretase 2 it was 5.66; at Beta-secretase 1 [12], 7.14. In [7], this molecule registered a pH-dependent lipophilicity (logD) of 0.07.

`CCn1cc2c3c(cc(C(=O)N[C@@H](Cc4ccccc4)[C@H](O)CNC4CC4)cc31)N(C)S(=O)(=O)CC2`: the pIC50 against Cathepsin D was 5.17; at Beta-secretase 2, 6.43. In addition, the logD in [7] stood at 1.79.

As to `CCc1cn2c3c(cc(C(=O)N[C@@H](Cc4ccccc4)[C@H](O)CNCc4cccc(C(F)(F)F)c4)cc13)OS(=O)(=O)CC2`, the values for the pIC50 against Beta-secretase 1 [2], at Cathepsin D and on Beta-secretase 2 were 8.10, 5.67 and 6.59, respectively.

For `C#CCNC[C@@H](O)[C@H](Cc1ccccc1)NC(=O)c1cc2c3c(cn(CC)c3c1)CCS(=O)(=O)N2C`, the pIC50 against Beta-secretase 1 [2] was 7.96; at Cathepsin D, 4.46; at Beta-secretase 2 it was 5.83; at Beta-secretase 1 [12], 7.59.

For `CCc1cn2c3c(cc(C(=O)N[C@@H](Cc4ccccc4)[C@H](O)CNC4CC4)cc13)OS(=O)(=O)CC2`, the pIC50 against Beta-secretase 1 [2] was 6.60; against Cathepsin D, 5.53; on Beta-secretase 2 it was 5.94.

In the case of `CC[C@@H](C)NC[C@@H](O)[C@H](Cc1ccccc1)NC(=O)c1cc2c3c(cn(CC)c3c1)CCS(=O)(=O)N2C`, the pIC50 is 8.00 against Beta-secretase 1 [2], 5.92 against Cathepsin D, 6.38 at Beta-secretase 2 and 7.19 at Beta-secretase 1 [12].

For the molecule `CCc1cn2c3c(cc(C(=O)N[C@@H](Cc4ccccc4)[C@H](O)CN[C@H](C)CC)cc13)N(C)S(=O)(=O)CC2`, the pIC50 against Beta-secretase 1 [2] is 7.66; against Cathepsin D, 5.27; on Beta-secretase 2, 6.37; on Beta-secretase 1 [12], 6.84. In addition, the logD in [7] is 1.52.

For the molecule `C#CCNC[C@@H](O)[C@H](Cc1ccccc1)NC(=O)c1cc2c3c(c1)c(CC)cn3CCS(=O)(=O)O2`, the pIC50 at Beta-secretase 1 [2] is 6.44; at Cathepsin D, 4.82; on Beta-secretase 2 it was 5.49.

For the molecule `CCCNC[C@@H](O)[C@H](Cc1ccccc1)NC(=O)c1cc2c3c(cn(CC)c3c1)CCS(=O)(=O)N2C`, the pIC50 at Beta-secretase 1 [2] is 8.10; at Beta-secretase 1 [12], 7.54.

`CCn1cc2c3c(cc(C(=O)N[C@@H](Cc4ccccc4)C(=O)CNC4CCOCC4)cc31)N(C)S(=O)(=O)CC2`: at Beta-secretase 1 [12], the pIC50 is 7.32.

With `CCn1cc2c3c(cc(C(=O)N[C@@H](Cc4ccccc4)[C@H](O)CNC4CCOCC4)cc31)N(C)S(=O)(=O)CC2`, the pIC50 against Beta-secretase 1 [2] is 8.30; on Cathepsin D, 5.68; against Beta-secretase 2, 6.23; at Beta-secretase 1 [12], 7.57. Also, in [7], the logD is 0.9.

As to `CCc1cn2c3c(cc(C(=O)N[C@@H](Cc4ccccc4)[C@H](O)CNCC4CCOCC4)cc13)OS(=O)(=O)CC2`, the pIC50 against Beta-secretase 1 [2] was 7.07; at Cathepsin D, 6.89; at Beta-secretase 2, 6.35.

With `CCc1cn2c3c(cc(C(=O)N[C@@H](Cc4ccccc4)[C@H](O)CNCCC(F)(F)F)cc13)N(C)S(=O)(=O)CC2`, the pIC50 against Beta-secretase 1 [2] is 8.15; against Cathepsin D, 6.05; against Beta-secretase 2 it was 7.55; at Beta-secretase 1 [12], 8.10. Besides, in series [7], the logD came out at 2.8.

`CCn1cc2c3c(cc(C(=O)N[C@@H](Cc4ccccc4)[C@H](O)CNc4ccccc4)cc31)N(C)S(=O)(=O)CC2`: the pIC50 at Beta-secretase 1 [2] is 8.30; at Beta-secretase 1 [12], 6.13.

As for `CCc1cn2c3c(cc(C(=O)N[C@@H](Cc4ccccc4)[C@H](O)CNC4CCOCC4)cc13)N(C)S(=O)(=O)CC2`, the pIC50 is 8.05 on Beta-secretase 1 [2], 7.22 on Cathepsin D, 6.68 against Beta-secretase 2 and 7.05 on Beta-secretase 1 [12]. Also, in series [7], the logD came out at 1.31.

For `C#CCNC[C@@H](O)[C@H](Cc1ccccc1)NC(=O)c1cc2c3c(c1)c(CC)cn3CCS(=O)(=O)N2C`, the pIC50 against Beta-secretase 1 [2] was 7.14; against Cathepsin D it was 4.12; against Beta-secretase 2, 5.51; at Beta-secretase 1 [12], 6.93.

For the molecule `CCn1cc2c3c(cc(C(=O)N[C@@H](Cc4ccccc4)[C@H](O)CNCCF)cc31)N(C)S(=O)(=O)CC2`, the pIC50 against Beta-secretase 1 [2] is 7.40; on Beta-secretase 1 [12] it was 6.61.

As for `CCc1cn2c3c(cc(C(=O)N[C@@H](Cc4ccccc4)[C@H](O)CNCCF)cc13)N(C)S(=O)(=O)CC2`, the pIC50 on Beta-secretase 1 [2] was 7.30; at Beta-secretase 1 [12], 6.68.

Turning to `CCn1cc2c3c(cc(C(=O)N[C@@H](Cc4ccccc4)[C@H](O)CNCC(F)(F)C(F)(F)F)cc31)N(C)S(=O)(=O)CC2`, the pIC50 is 7.49 on Beta-secretase 1 [2] and 5.35 on Beta-secretase 1 [12].

`CCn1cc2c3c(cc(C(=O)N[C@@H](Cc4ccccc4)[C@H](O)CNCCC(F)(F)F)cc31)N(C)S(=O)(=O)CC2`: the clearance in [13] turned out to be 57 mL/min/kg; in [4], 94 mL/min/kg; in series [20] it was 14 mL/min/kg; in [8], 85 mL/min/kg. For the same molecule, the results for the Css in the series with Blood [1] and in the series on Brain [5] were 381 nM and 40 nM, respectively. In addition, the Vd is 4.8 L/kg in [14] and 11 L/kg in [19]. In addition, the Cmax in [15] was 88 nM; in series [16], 3590 nM. For the same molecule, the Kp was 0.1 in [3] and 0.99 in series [11]. Besides, the pIC50 at Cathepsin D is 6.24; against Beta-secretase 2, 7.12. The concentration was found to be 335 nM in the series with Brain [6] and 339 nM in the series on Blood [10]. Further, the values for the half-life in [17] and in series [21] were 3.3 h and 6.8 h, respectively. Besides, the bioavailability turned out to be 52% in [18] and 13% in [9]. The logD in series [7] is 2.59.
